Reference: publication PMC12587786, “In vitro α-glucosidase inhibition, molecular dynamics and docking study of phenyl carbamoyl methoxy thiosemicarbazone derivatives as potential anti-diabetic agents” (Journal of Enzyme Inhibition and Medicinal Chemistry, 2025)
“Also recorded” adds a separate entry of the source. Read-outs that look alike come from different tables or passages of the source.

Legend:
[1] = molecular target: T1, α-glucosidase (from Saccharomyces cerevisiae EC 3.2.1.20) (Saccharomyces cerevisiae, UniProt P53341); assay: biochemical
T1 construct: purchased Sigma
T1 sequence (P53341 whole entry): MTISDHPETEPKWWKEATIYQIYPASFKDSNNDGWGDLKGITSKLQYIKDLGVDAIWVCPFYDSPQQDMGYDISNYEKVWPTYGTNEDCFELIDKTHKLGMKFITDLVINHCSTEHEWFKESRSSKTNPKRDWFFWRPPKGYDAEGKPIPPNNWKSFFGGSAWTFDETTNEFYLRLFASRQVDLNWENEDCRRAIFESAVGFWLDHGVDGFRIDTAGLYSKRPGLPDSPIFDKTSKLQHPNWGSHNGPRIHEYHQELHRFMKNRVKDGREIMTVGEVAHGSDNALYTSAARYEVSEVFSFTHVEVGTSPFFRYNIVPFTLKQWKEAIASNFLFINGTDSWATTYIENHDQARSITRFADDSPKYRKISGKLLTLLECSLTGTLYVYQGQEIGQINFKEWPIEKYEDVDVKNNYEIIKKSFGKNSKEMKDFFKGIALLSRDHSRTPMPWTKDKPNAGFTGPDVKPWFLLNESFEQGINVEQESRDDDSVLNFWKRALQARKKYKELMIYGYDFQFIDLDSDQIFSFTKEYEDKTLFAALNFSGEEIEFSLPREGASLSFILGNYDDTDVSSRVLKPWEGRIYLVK
Method: The method described by Azizian et al. with some modifications was used to assess αglucosidase inhibitory activity of novel derivatives of phenyl carbamoyl methoxy thiosemicarbazone. The enzyme solution was prepared of αglucosidase (1 U/mL) in a […] phosphate buffer (pH: 6.8). The final volume of assay solution in the 96-well plate was 200 µl, which was prepared in the following order: 20 µl of the enzyme solution was used to obtain a final enzyme activity of […] per well. 20 µl of various concentrations of novel inhibitors (1000, 500, 250, 125, 62.5, 31.25, and 15.62 µM) and potassium phosphate buffer (135 µl, pH = 6.8). The 96-well plate was incubated for 10 min at 37 °C and pNPG as substrate (25 µl, 4 mM) was added to each well of the plate and was incubated again for 30 min at 37 °C. Finally, absorbance was measured at 405 nm using a spectrophotometer (BioTek ELx808, USA). […] The IC50 values for the tested inhibitors were calculated using Microsoft Excel 2016 software and non-linear regression analysis.

[2] = MTT cytotoxicity assay on A549 cells; format: cell-based; details: human, A549 cells (non-small cell lung carcinoma cell line), 24 h, MTT, read-out: cell viability rate; for viability at 24 h, 12.5 µM: A549, 12.5 µM; for viability at 24 h, 25 µM: A549, 25 µM; for viability at 24 h, 50 µM: A549, 50 µM; for viability at 24 h, 100 µM: A549, 100 µM
Method: (§1) To evaluate the cytotoxic effects of novel derivatives of phenyl carbamoyl methoxy thiosemicarbazone, an MTT assay was conducted using the non-small cell lung carcinoma cell line A549 and the MDA-MB-453 human breast cancer cell line. Both cell lines were obtained from the Pasteur Institute in Iran, and the assay was performed following the method of Jelena et al.[15], with some minor modifications.
(§2) In short, 100 µl of A549 cells (1 × 10^5) cultured in DMEM (Dulbecco’s modified Eagle’s medium) enriched with 10% foetal bovine serum (FBS) and 100 U/mL penicillin. […] streptomycin were added to each well in a 96-well plate, and they were incubated at 37 °C and 5% CO2 for 24 h. Also, 100 µl of MDA-MB-453 cells (1 × 10^5) cultured in RPMI enriched with 10% FBS and 100 U/mL penicillin and […] streptomycin were added to each well in a 96-well plate and were incubated at 37 °C and 5% CO2 for 24 h. Subsequently, the medium in both cell lines was replaced with different concentrations (12.5, 25, 50, and 100 µM) of two derivatives of 7e and 7 g, and plates were incubated at 37 °C and 5% CO2 for 24 h. After that, 10 µl of MTT (3–4, 5 dimethyl thiazol- 2 yl)-2, 5- diphenyl tetrazolium bromide) (Sigma USA) dye ([…] in PBS) was added to each well and incubated for 4 h at 37 °C. After 4 h, the solution was removed from the cells, and 100 µl of DMSO (dimethyl sulfoxide) was added to the wells. The optical density of each well was measured at 570 nm using an ELISA reader (BioTek ELx808, USA). The wells containing more cells have a higher optical density (OD) than those with fewer cells. Therefore, the wells with more cells can be identified using the following equation and compared with the control sample. Toxicity%=1−mean OD of sample/mean OD of control∗100 viability%=100−Toxicity %
(§3) PBS buffer and 1% Triton X-100 were negative and positive controls, respectively. All tests were conducted in triplicate.

[3] = MTT cytotoxicity assay on MDA-MB-453 cells; format: cell-based, human; details: human, MDA-MB-453 cells (breast cancer cell line), 24 h, MTT, read-out: cell survival rate / cell viability; for viability at 24 h, 12.5 µM: MDA-MB-453, 12.5 µM; for viability at 24 h, 25 µM: MDA-MB-453, 25 µM; for viability at 24 h, 50 µM: MDA-MB-453, 50 µM; for viability at 24 h, 100 µM: MDA-MB-453, 100 µM
Method: as §1, §2, §3

α-glucosidase = molecular target: T2, α-glucosidase (Saccharomyces cerevisiae, UniProt P53341); assay: Kinetic study of α-glucosidase inhibition (Lineweaver-Burk and secondary plots); format: biochemical
T2 construct: purchased Sigma
T2 sequence (P53341 whole entry): as above
Method: Kinetic studies were conducted to determine the inhibition mechanism of the strongest novel inhibitor with the lowest IC50. […] The experimental inhibitor constant[42] was made using secondary plots.
This was achieved using Lineweaver–Burk plots to determine the type of inhibition mechanism and the Km value. […] This mode of inhibition is particularly advantageous for antidiabetic therapy, as it facilitates glucose-dependent modulation of enzyme activity. […] These attributes highlight the promise of 7e as a therapeutic agent for managing postprandial glucose levels in individuals with type 2 DM.

[4] = system: non-small cell lung carcinoma cell line A549; assay: MTT cytotoxicity assay on A549 cells; format: cell-based; details: A549
Method: as §1, §2, §3

[5] = system: MDA-MB-453 human breast cancer cell line; assay: MTT cytotoxicity assay on MDA-MB-453 cells; format: cell-based; details: MDA-MB-453
Method: as §1, §2, §3

[6] = pNPG substrate, pH 6.8, 37 °C, mean ± SD, n = 3, read-out: IC50 (µM) ± SD, α-glucosidase inhibitory activity

## 2-{4-[(Z)-[(carbamothioylamino)imino]methyl]-2-methoxyphenoxy}-N-(4-methylphenyl) acetamide [Compound 7i]
[1]; [6]
  IC50: 125.9 ± 0.016 µM

## CCc1ccc(NC(=O)COc2ccc(/C=N\NC(N)=S)cc2OC)cc1 [Compound 7c, 2-{4-[(Z)-[(carbamothioylamino)imino]methyl]-2-methoxyphenoxy}-N-(4-ethylphenyl) acetamide]
[1]; [6]
  IC50: 95.99 ± 0.273 µM

## COc1cc(/C=N\NC(N)=S)ccc1OCC(=O)Nc1ccccc1Cl [7 g, 2-{4-[(Z)-[(carbamothioylamino)imino]methyl]-2-methoxyphenoxy}-N-(2-chlorophenyl) acetamid]
[1]
  IC50: 62.2 ± 0.411 µM
[2]
  viability at 24 h, 12.5 µM: 96.2%
  viability at 24 h, 25 µM: 72.4%
  viability at 24 h, 50 µM: 57.3%
  viability at 24 h, 100 µM: 27.7%
[3]
  viability at 24 h, 12.5 µM: 89.6%
  viability at 24 h, 25 µM: 66.7%
  viability at 24 h, 50 µM: 50.6%
  viability at 24 h, 100 µM: 41%

## COc1cc(/C=N\NC(N)=S)ccc1OCC(=O)Nc1ccc(C)cc1 [Compound 7b, 2-{4-[(Z)-[(carbamothioylamino)imino]methyl]-2-methoxyphenoxy}-N-(4-methylphenyl) acetamide]
[1]; [6]
  IC50: 151.18 ± 0.02 µM

## COc1cc(/C=N\NC(N)=S)ccc1OCC(=O)Nc1ccc(Br)cc1 [Compound 7h, N-(4-bromophenyl)-2-{4-[(Z)-[(carbamothioylamino)imino]methyl]-2-methoxyphenoxy} acetamide]
[1]; [6]
  IC50: 573.67 ± 0.043 µM

## COc1cc(/C=N\NC(N)=S)ccc1OCC(=O)Nc1ccc(C)cc1C [Compound 7l, 2-{4-[(Z)-[(carbamothioylamino)imino]methyl]-2-methoxyphenoxy}-N-(2,4-dimethylphenyl) acetamide]
[1]
  IC50: 122.72 ± 0.098 µM

## COc1ccc(NC(=O)COc2ccc(/C=N\NC(N)=S)cc2OC)cc1 [Compound 7m, 2-{4-[(Z)-[(carbamothioylamino)imino]methyl]-2-methoxyphenoxy}-N-(4-methoxyphenyl) acetamide]
[1]; [6]
  IC50: 436.5 ± 0.062 µM

## COc1cc(C=NNC(N)=S)ccc1OCC(=O)NCc1ccccc1 [Compound 7d]
[1]
  IC50: 216.42 ± 0.025 µM

## COc1cc(/C=N\NC(N)=S)ccc1OCC(=O)Nc1ccccc1 [Compound 7a, 2-{4-[(Z)-[(carbamothioylamino)imino]methyl]-2-methoxyphenoxy}-N-phenylacetamide]
[1]
  IC50: 257 ± 0.491 µM

## COc1cc(/C=N\NC(N)=S)ccc1OCC(=O)Nc1ccccc1F [Compound 7n, 2-{4-[(Z)-[(carbamothioylamino)imino]methyl]-2-methoxyphenoxy}-N-(2-fluorophenyl) acetamide]
[1]
  IC50: 95.65 ± 0.056 µM

## COc1cc(/C=N\NC(N)=S)ccc1OCC(=O)Nc1ccc(Cl)cc1 [Compound 7k, 2-{4-[(Z)-[(carbamothioylamino)imino]methyl]-2-methoxyphenoxy}-N-(4-chlorophenyl) acetamide]
[1]
  IC50: 442.41 ± 0.009 µM

## COc1cc(/C=N\NC(N)=S)ccc1OCC(=O)Nc1cccc(C)c1 [Compound 7e, 2-{4-[(Z)-[(carbamothioylamino)imino]methyl]-2-methoxyphenoxy}-N-(3-methylphenyl) acetamide]
[1]
  IC50: 23.95 ± 0.038 µM
α-glucosidase
  Ki: 34.8 µM
α-glucosidase; Lineweaver–Burk plots
  Type of inhibition mechanism: competitive inhibitor
α-glucosidase; inhibitor 0-250 µM
  Vmax with increasing inhibitor concentration: remained unchanged
[2]
  viability at 24 h, 12.5 µM: 95.5%
  viability at 24 h, 25 µM: 84.3%
  viability at 24 h, 50 µM: 75.2%
  viability at 24 h, 100 µM: 63.7%
[4]
  cytotoxic activity (in words): did not possess important cytotoxic activity; also recorded: low cytotoxicity
[3]
  viability at 24 h, 12.5 µM: 97.4%
  viability at 24 h, 25 µM: 74.7%
  viability at 24 h, 50 µM: 66.3%
  viability at 24 h, 100 µM: 57.2%
[5]
  cytotoxic activity (in words): did not possess important cytotoxic activity; also recorded: low cytotoxicity

## COc1cc(/C=N\NC(N)=S)ccc1OCC(=O)Nc1cccc(C)c1C [Compound 7j, 2-{4-[(Z)-[(carbamothioylamino)imino]methyl]-2-methoxyphenoxy}-N-(2,3-dimethylphenyl) acetamide]
[1]
  IC50: 103.91 ± 0.028 µM

## COc1cc(/C=N\NC(N)=S)ccc1OCC(=O)Nc1cccc([N+](=O)[O-])c1 [Compound 7f, 2-{4-[(Z)-[(carbamothioylamino)imino]methyl]-2-methoxyphenoxy}-N-(3-nitrophenyl) acetamide]
[1]
  IC50: 328.17 ± 0.083 µM
